These results are taken from article PMC11643494, “Structure–Activity Relationship Studies in a Series of 2-Aryloxy-N-(pyrimidin-5-yl)acetamide Inhibitors of SLACK Potassium Channels” (Molecules, 2024).

The experiment deals with T1, Human A934T SLACK (Homo sapiens, UniProt Q5JUK3, A915T).
T1 construct: host or cells: CHO-K1
T1 sequence (Q5JUK3 1-1235 isoform Q5JUK3-3 A934T): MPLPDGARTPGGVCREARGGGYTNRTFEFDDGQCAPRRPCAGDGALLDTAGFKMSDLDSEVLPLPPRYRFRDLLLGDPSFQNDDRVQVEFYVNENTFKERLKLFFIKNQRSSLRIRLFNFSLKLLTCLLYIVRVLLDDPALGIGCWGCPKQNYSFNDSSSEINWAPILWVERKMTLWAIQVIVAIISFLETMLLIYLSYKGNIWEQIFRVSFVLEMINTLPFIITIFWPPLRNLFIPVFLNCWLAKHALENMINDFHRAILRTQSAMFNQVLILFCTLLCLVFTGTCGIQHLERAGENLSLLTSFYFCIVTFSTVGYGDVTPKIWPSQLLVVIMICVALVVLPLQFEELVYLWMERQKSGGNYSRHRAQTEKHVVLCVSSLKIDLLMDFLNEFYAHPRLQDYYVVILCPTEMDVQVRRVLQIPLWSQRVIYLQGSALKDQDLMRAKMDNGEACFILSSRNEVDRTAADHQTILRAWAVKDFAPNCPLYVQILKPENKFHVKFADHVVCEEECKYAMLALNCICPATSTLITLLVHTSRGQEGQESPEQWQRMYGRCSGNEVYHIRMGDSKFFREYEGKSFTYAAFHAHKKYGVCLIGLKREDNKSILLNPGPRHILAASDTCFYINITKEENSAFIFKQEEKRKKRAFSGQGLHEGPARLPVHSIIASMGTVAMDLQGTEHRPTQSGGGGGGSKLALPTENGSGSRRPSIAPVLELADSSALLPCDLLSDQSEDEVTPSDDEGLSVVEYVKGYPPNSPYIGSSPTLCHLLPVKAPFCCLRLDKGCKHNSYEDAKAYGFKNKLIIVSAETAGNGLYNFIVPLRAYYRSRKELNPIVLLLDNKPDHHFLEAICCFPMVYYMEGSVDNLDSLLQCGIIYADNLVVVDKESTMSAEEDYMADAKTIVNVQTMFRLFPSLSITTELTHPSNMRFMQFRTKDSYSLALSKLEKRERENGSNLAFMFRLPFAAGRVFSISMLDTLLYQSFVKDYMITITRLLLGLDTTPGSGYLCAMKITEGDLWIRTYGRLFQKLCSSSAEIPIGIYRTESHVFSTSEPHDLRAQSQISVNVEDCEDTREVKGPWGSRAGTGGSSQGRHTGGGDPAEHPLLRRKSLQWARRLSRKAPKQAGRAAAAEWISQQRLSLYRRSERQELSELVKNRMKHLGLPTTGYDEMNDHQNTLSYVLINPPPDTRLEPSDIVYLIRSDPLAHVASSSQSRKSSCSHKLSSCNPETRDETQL
The experiment in a line: Whole-cell APC in CHO-K1 cells stably expressing human A934T SLACK. The format is cell-based. The conditions noted are these: for IC50: APC, CHO-K1 cells; for Imax: maximum inhibition at 30 µM standardized to VU0606170 (set at 100%). From the text:
Finally, we chose to screen the same two compounds versus mouse SLACK and two clinically relevant GOF SLACK mutants in APC assays utilizing CHO-K1 cells stably expressing these targets (Table 7). Screening versus the mouse homolog was deemed important for evaluating the potential of the series to ultimately lead to a useful in vivo tool via further optimization.
Stably transfected monoclonal HEK293 cell lines expressing SLICK, Maxi-K α1/β3, Maxi-K α1/β4, CaV3.2, GIRK 1/2, KV2.1, KV7.2, NaV1.7, and TASK-1 were generated as previously described. Stably transfected monoclonal HEK293 cell lines expressing hERG were generated as previously described. CHO-K1 cells expressing human SLACK and disease-associated human SLACK mutations, G288S and A934T, were generated by transfecting a PiggyBac TRE mammalian expression vector (VectorBuilder, Chicago, IL, USA) containing KCNT1. FuGENE 6 (Promega, Madison, WI, USA) transfection reagent and protocol, together with Opti-MEM (Thermo Fisher Scientific, Waltham, MA, USA), were utilized according to the manufacturer’s instructions.
Automated patch clamp recording was performed with a SyncroPatch 768 PE system (Nanion, Munich, Germany) as previously described. Whole-cell recordings were performed at room temperature. Cells were harvested by first washing with PBS without Mg^2+ or Ca^2+ (Gibco, Billings, MT, USA) to remove cell culture medium, followed by dissociation with TryPLE (Gibco, Billings, MT, USA). Cells were then resuspended and diluted to 200,000 cells/mL in external solution. External solution contained 105 mM NaCl, 4 mM KCl, 1 mM MgCl2, 5 mM CaCl2, 10 mM HEPES, 40 mM N-Methyl-D-glucamine chloride, titrated to pH 7.4 with NaOH and osmolarity of 300 mOsm/kg; internal solution contained 70 mM NaCl, 70 mM KF, 10 mM KCl, 5 mM EGTA, 5mM HEPES, titrated to a pH 7.2 with KOH and osmolarity of 295 mOsm/kg.
The APC protocol was set as following: Cells were held at […] −80 mV for 100 ms, then a ramp protocol was performed from −100 mV to 80 mV at 0.4 mV/ms, hold the cell at −80 mV for another 100 ms, then steps were performed at −20 mV, 0 mV, +20 mV, +40 mV, and +60 mV for 100 ms of each step. Whole-cell currents were measured at 0 mV and normalized to current after external buffer addition.

Molecules are shown by their SMILES.

As usually defined, the IC50 is the concentration needed to halve the response being measured. Higher therefore signals weaker potency in that assay. With `CC(C)(Oc1ccc(Cl)cc1)C(=O)Nc1cnc(Oc2c(F)cccc2F)nc1` [Analog 40], the IC50 worked out at 410 nM and the Imax stood at 96%.
In the same order, the values of `CN(c1ccc(C#N)cc1)c1ncc(NC(=O)C(C)(C)Oc2ccc(Cl)cc2)cn1` [Analog 66] are 1200 nM and 84%.
